Results on 40 compounds are retold here after US4920128A, “Pyrazolo[3,4-b]quinolines and their use as antiviral agents” (Sterling Drug Inc., priority 1988, dated 1990).

Values after ≈ are worked out from the molar mass of the structure shown.

Assay [1] concerns herpes simplex virus type 2 (HSV-2). As to the kind of experiment: HSV-2 plaque-reduction on mouse embryo fibroblast monolayers. Particulars: concentration which inhibited the number of plaques by 50%, interpolated, HSV-2 (Curtis strain), ~80 pfu, 2 days at 37° C.; for IC50: Human alphaherpesvirus 2, Fibroblast, 48 h, read-out: MIC. Type of assay: cell-based. The protocol: The activity of the compounds of the invention against herpes simplex virus type 2 (HSV-2) was determined by measuring plaque-reduction activity on mouse embryo fibroblast monolayers. Two-day-old monolayers of Balb/c or ICR mouse embryo fibroblasts (MEF) were infected with approximately 80 pfu (plaque forming units) of HSV-2 (Curtis strain) in the presence of various concentrations of the test compounds. After a 1 hour absorption period at 37° C. and 2% CO2, the inoculum was removed and an overlay containing equal parts of 2X MS medium supplemented with 10% fetal calf serum (FSC) and 1% molten Seakem agarose was added to cell monolayers. Both the inocula and the overlay mixtures contained 1:200 dilutions of the test compound made from stock dilutions in dimethylsulfoxide. After incubation at 37° C. and 2% CO2 for 2 days, the monolayers were fixed with 5% glutaraldehyde and stained with 0.25% aqueous crystal violet. The plaques were quantitated by visual inspection. The minimum inhibitory concentration (MIC) for a compound was defined as the concentration in micrograms per milliliter (μg/ml) which inhibited the number of plaques by 50%. The MIC was calculated by interpolation.

The test system of assay [2] is phenylephrine-contracted aortic ring preparation. Description: vasodilator activity in phenylephrine-contracted aortic ring preparation from the spontaneously hypertensive rat (SHR). Particulars: 50% of maximal relaxation induced by papaverine (200 μM), contracted with 1 μM phenylephrine. The protocol: Aortic ring preparations from SHR are suspended in buffered physiological saline and induced to contract by addition of 1 μM phenylephrine, a selective α1 -adrenergic agonist. When a sustained contraction is obtained, the test compound is added cumulatively in ascending concentrations beginning at 1 μM. At the end of the addition of the test compound, a 200 μM concentration of papaverine is added to the organ bath for induction of a 100% vasodilator response. Percent relaxation by the test compound is expressed as a percent of maximal relaxation induced by papaverine. […] By this procedure, EC50 values for certain compounds of the invention were determined with the following results: […]

As to `COc1ccc2cc3c(Br)nn(CCN(C)C)c3nc2c1` [Example 37, 3-Bromo-1-[2-(dimethylamino)ethyl]-7-methoxy-1H-pyrazolo[3,4-b]quinoline], in assay [1], the IC50 came to 0.97 µg/mL (≈ 2.78 µM).
Take `Nc1n[nH]c2nc3cc(O)ccc3cc12` [Example 13, 3-Amino-1H-pyrazolo[3,4-b]quinolin-7-ol]: the IC50 in assay [1] is 13 µg/mL (≈ 64.9 µM). In assay [2], a half-maximal effect (EC50) was put at 87 µM.
As to `CCn1nc(N)c2cc3ccc(OC)cc3nc21` [Example 10, 1-Ethyl-7-methoxy-1H-pyrazolo[3,4-b]quinolin-3-amine], the IC50 in assay [1] worked out at 7.8 µg/mL (≈ 32.2 µM).
In the case of `CCOC(=O)Cn1nc(N)c2cc3ccc(OC)cc3nc21` [Example 19, Ethyl 3-amino-7-methoxy-1H-pyrazolo[3,4-b]quinolin-1-acetate], the IC50 in assay [1] was found to be 12 µg/mL (≈ 40 µM). Further, in assay [2], the concentration giving a half-maximal response (EC50) was 71 µM.
Compound `CCN(CC)CCn1nc(N)c2cc3cc(OC)ccc3nc21` [Example 16, 1-[2-(Diethylamino)ethyl]-6-methoxy-1H-pyrazolo[3,4-b]quinolin-3-amine] returned a 50% effective concentration (EC50) in assay [2] of 40 µM.
In assay [2], `CCNC(=O)Cn1nc(N)c2cc3ccc(OC)cc3nc21` [Example 28, 3-Amino-7-methoxy-N-ethyl-1H-pyrazolo[3,4-b]quinolin-1-acetamide] gave an EC50 of 70 µM.
Consider `COc1ccc2cc3c(Cl)nn(CCN(C)C)c3nc2c1` [Example 40, 3-Chloro-1-(2-dimethylaminoethyl)-7-methoxy-1H-pyrazolo[3,4-b]quinoline], for which, in assay [1], the IC50 was 0.67 µg/mL (≈ 2.2 µM).
Regarding `Cn1nc(N)c2cc3ccc(O)cc3nc21` [Example 12, 3-Amino-1-methyl-1H-pyrazolo[3,4-b]quinolin-7-ol], the concentration giving a half-maximal response (EC50) in assay [2] amounted to 57 µM.
Take `COc1ccc2cc3c(N)nn(-c4ccccc4)c3nc2c1` [Example 11, 7-Methoxy-1-phenyl-1H-pyrazolo[3,4-b]quinolin-3-amine]: the IC50 in assay [1] stood at 19 µg/mL (≈ 65.4 µM).
Turning to `CCN(CC)CCn1nc(N)c2cc3ccc(O)cc3nc21` [Example 23], in assay [1], the IC50 stood at 39 µg/mL (≈ 130 µM). The EC50 in assay [2] is 33 µM.
Turning to `COc1ccc2nc3c(cc2c1)c(Br)nn3CCN(C)C` [Example 36, 3-Bromo-1-[2-(dimethylamino)ethyl]-6-methoxy-1H-pyrazolo[3,4-b]quinoline], in assay [1], the IC50 is 4.3 µg/mL (≈ 12.3 µM).
With `COc1ccc2cc3c(N)nn(CN(C)C)c3nc2c1` [Example 30, 1-[(Dimethylamino)methyl]-7-methoxy-1H-pyrazolo[3,4-b]quinolin-3-amine], the IC50 in assay [1] is 2.6 µg/mL (≈ 9.58 µM).
`COc1cc2cc3c(N)n[nH]c3nc2cc1OC` [4(d), 6,7-Dimethoxy-1H-pyrazolo[3,4-b]quinolin-3-amine]: in assay [2], the EC50 was 18 µM.
In the case of `COc1ccc2nc3c(cc2c1)c(C#N)nn3C` [Example 33, 6-Methoxy-1-methyl-1H-pyrazolo[3,4-b]quinoline-3-carbonitrile], in assay [1], the IC50 came out at 42 µg/mL (≈ 176 µM).
Consider `COc1ccc2cc3c(N)n[nH]c3nc2c1` [3(d), 7-Methoxy-1H-pyrazolo[3,4-b]quinolin-3-amine], for which the IC50 in assay [1] came out at 4.3 µg/mL (≈ 20.1 µM). Besides, in assay [2], the 50% effective concentration (EC50) was determined as 21 µM.
For `CNCCn1nc(Br)c2cc3ccc(OC)cc3nc21` [Example 41, 3-Bromo-7-methoxy-1-(2-methylaminoethyl)-1H-pyrazolo[3,4-b]quinoline], in assay [1], the IC50 came to 0.72 µg/mL (≈ 2.15 µM).
For `COc1ccc2nc3c(cc2c1)c(N)nn3CC(=O)N(C)C` [Example 25, 3-Amino-6-methoxy-N,N-dimethyl-1H-pyrazolo[3,4-b]quinolin-1-acetamide], in assay [2], the EC50 was determined as 116 µM.
With `CCOc1ccc2cc3c(N)n[nH]c3nc2c1` [5(d), 7-Ethoxy-1H-pyrazolo[3,4-b]quinolin-3-amine], the IC50 in assay [1] was 17 µg/mL (≈ 74.5 µM).
Turning to `COc1ccc2cc3c(Cl)nn(CC(C)N(C)C)c3nc2c1` (stereo not drawn) [Example 45, 3-Chloro-1-[2-(dimethylamino)-2-methylethyl]-7-methoxy-1H-pyrazolo[3,4-b]quinoline], in assay [1], the IC50 came to 0.88 µg/mL (≈ 2.76 µM).
Turning to `COc1cccc2nc3[nH]nc(N)c3cc12` [6(d), 5-Methoxy-1H-pyrazolo[3,4-b]quinolin-3-amine], the IC50 in assay [1] is 13 µg/mL (≈ 60.7 µM).
In the case of `CN(C)CCn1nc(N)c2cc3ccc(O)cc3nc21` [Example 24, 3-Amino-1-[2-(dimethylamino)ethyl]-1H-pyrazolo[3,4-b]quinolin-7-ol], the IC50 in assay [1] was determined as 13 µg/mL (≈ 47.9 µM).
As to `COc1ccc2nc3c(cc2c1)c(N)nn3CCCN(C)C` [Example 17, 1-[3-(Dimethylamino)propyl]-6-methoxy-1H-pyrazolo[3,4-b]quinolin-3-amine], in assay [1], the IC50 was 78 µg/mL (≈ 261 µM). Besides, it took 91 µM to reach a half-maximal effect in assay [2] (EC50).
For `CNCCn1nc(N)c2cc3cc(OC)ccc3nc21` [Example 27, 1-[2-(Methylamino)ethyl]-6-methoxy-1H-pyrazolo[3,4-b]quinolin-3-amine], the IC50 in assay [1] came to 13 µg/mL (≈ 47.9 µM).
Same read-out and setting: the same measure for `CNC(C)Cn1nc(Cl)c2cc3ccc(OC)cc3nc21` (stereo not drawn) [Example 46, 3-Chloro-1-[2-(methylamino)-2-methylethyl]-7-methoxy-1H-pyrazolo[3,4-b]quinoline]: 3.7 µg/mL (≈ 12.1 µM).
As to `COc1ccc2nc3c(cc2c1)c(N)nn3CCN(C)C` [Example 21, 1-[2-(Dimethylamino)ethyl]-6-methoxy-1H-pyrazolo[3,4-b]quinolin-3-amine], the IC50 in assay [1] came to 24 µg/mL (≈ 84.1 µM). The compound further had an EC50 in assay [2] of 38 µM.
Turning to `CCCn1nc(N)c2cc3ccc(OC)cc3nc21` [Example 9, 7-Methoxy-1H-1-propylpyrazolo[3,4-b]quinolin-3-amine], the IC50 in assay [1] is 5.3 µg/mL (≈ 20.7 µM).
For `COc1ccc2nc3[nH]nc(N)c3cc2c1` [1(d), 6-Methoxy-1H-pyrazolo[3,4-b]quinolin-3-amine], the IC50 in assay [1] came to 1.5 µg/mL (≈ 7 µM). This compound registered a 50% effective concentration (EC50) in assay [2] of 31 µM.
Take `COC(=O)c1nn(CCN(C)C)c2nc3cc(OC)ccc3cc12` [Example 39, Methyl 1-[2-(dimethylamino)ethyl]-7-methoxy-1H-pyrazolo[3,4-b]quinoline-3-carboxylate]: the IC50 in assay [1] turned out to be 2.3 µg/mL (≈ 7 µM).
With `COc1ccc2cc3c(N)nn(CCN(C)C)c3nc2c1` [Example 18, 1-[2-(Dimethylamino)ethyl]-7-methoxy-1H-pyrazolo[3,4-b]quinolin-3-amine], in assay [1], the IC50 was 12 µg/mL (≈ 42.1 µM). In assay [2], this compound showed a concentration giving a half-maximal response (EC50) of 25 µM.
Consider `COc1ccc2cc3c(N)nn(CCN4CCOCC4)c3nc2c1` [Example 15, 7-Methoxy-1-[2-(4-morpholinyl)ethyl]-1H-pyrazolo[3,4-b]quinolin-3-amine], for which the IC50 in assay [1] worked out at 44 µg/mL (≈ 134 µM).
Regarding `CCN(CC)CCn1nc(N)c2cc3ccc(OC)cc3nc21` [Example 22, 1-[2-(Diethylamino)ethyl]-7-methoxy-1H-pyrazolo[3,4-b]quinolin-3-amine], the IC50 in assay [1] was found to be 23 µg/mL (≈ 73.4 µM). For the same compound, in assay [2], the midpoint of the response, the EC50, lay at 22 µM.
As to `COc1ccc2cc3c(N)nn(CC(C)N(C)C)c3nc2c1` (stereo not drawn) [Example 44a, 1-[2-(dimethylamino)-2-methylethyl]-7-methoxy-1H-pyrazolo[3,4-b]quinolin-3-amine], in assay [1], the IC50 was found to be 11 µg/mL (≈ 36.7 µM).
In turn, `Nc1n[nH]c2nc3ccccc3cc12` [2(d), 1H-Pyrazolo[3,4-b]quinolin-3-amine] displayed a concentration for a half-maximal effect (EC50) in assay [2] of 26 µM.
As for `COc1ccc2nc3c(cc2c1)c(C(N)=O)nn3C` [Example 35, 6-Methoxy-1-methyl-1H-pyrazolo[3,4-b]quinoline-3-carboxamide], the IC50 in assay [1] is 7 µg/mL (≈ 27.3 µM). The compound also yielded an EC50 in assay [2] of 9 µM.
`Nc1n[nH]c2nc3ccc(O)cc3cc12` [Example 14, 3-Amino-1H-pyrazolo[3,4-b]quinolin-6-ol]: the EC50 in assay [2] turned out to be 25 µM.
Consider `COc1ccc2cc3c(N)nn(C)c3nc2c1` [Example 7, 7-Methoxy-1-methyl-1H-pyrazolo[3,4-b]quinolin-3-amine], for which, in assay [1], the IC50 was 6.4 µg/mL (≈ 28 µM). The compound also showed an EC50 in assay [2] of 43 µM.
In the case of `COc1ccc2cc3c(C#N)nn(CCN(C)C)c3nc2c1` [Example 38, 1[2-(Dimethylamino)ethyl]-7-methoxy-1H-pyrazolo[3,4-b]quinoline-3-carbonitrile], in assay [1], the IC50 came out at 0.82 µg/mL (≈ 2.78 µM).
As for “7-Methoxy-1-methyl-1H-pyrazolo[3,4-b]quinoline-3-methanamine [Example 34]”, the MIC in assay [1] stood at 15 µg/mL.
Consider `COc1ccc2nc3c(cc2c1)c(Cl)nn3C` [Example 31, 3-Chloro-6-methoxy-1-methyl-1H-pyrazolo[3,4-b]quinoline], for which the IC50 in assay [1] was 18 µg/mL (≈ 72.7 µM).
For the compound `CCNCCn1nc(N)c2cc3ccc(OC)cc3nc21` [Example 29, 1-[2-(Ethylamino)ethyl]-7-methoxy-1H-pyrazolo[3,4-b]quinolin-3-amine], the IC50 in assay [1] amounted to 6.7 µg/mL (≈ 23.5 µM).

In general, EC50 refers to the midpoint of the concentration-response curve. High values mean lower potency in that assay, low ones higher potency in that assay.
